{
  "source": "paper PMC5321741",
  "about": "“Arylmethylamino steroids as antiparasitic agents” (Nature Communications, 2017)",
  "key": {"[1]": {"experiment": "acute toxicity in vivo model", "design": "species or system mice", "conditions": "accumulative dose 100 mg kg−1 (5, 15, 30, 50 mg kg−1 at 2 h intervals), p.o. and i.p.", "procedure": "The compound was applied at an accumulative dose of 100 mg kg^−1 (per os (p.o.). as well as intraperitoneally (i.p.)). The first application was 5 mg kg^−1, 2 h later 15 mg kg^−1, 2 h later 30 mg kg^−1 and again 2 h later 50 mg kg^−1. […] Moreover, we performed pharmacokinetics studies in mice, dosing i.v., i.p. and p.o. (Supplementary Table 5). […] In contrast, high exposure and sustained levels of ∼2 μM were obtained after i.p. dosing at 100 mg kg^−1.\nIn addition, cytotoxicity tests with compound 1o were carried out on immortalized human hepatocytes, Fa2N-4 cells, resulting in an LC50>50 μM. The best compound 1o has furthermore been tested in an acute toxicity in vivo model at the Swiss Tropical Institute, Basel."}, "[2]": {"experiment": "in vitro", "assay_type": "cell-based", "conditions": "Human", "procedure": "Furthermore, cytotoxicity tests were carried out on immortalized human hepatocytes, Fa2N-4 cells (XenoTech, cat.no. IFH15), at the Sanford-Burnham Medical Research Institute. Cells were incubated with a range of concentrations (0.01–50 μM) of compound 1o for 24 h. Cell viability was determined with cellular ATP levels by using the Luminescence ATP Detection Assay System (ATPlite 1 step)."}, "[3]": {"experiment": "plasma protein binding (rapid equilibrium dialysis)", "assay_type": "in vitro ADME", "conditions": "read-out: Plasma Protein Binding % bound (converted)", "procedure": "Pharmacokinetic data were obtained for compound 1o at the Sanford-Burnham Medical Research Institute according to established procedures. Compound solubility in an aqueous solution was measured using an automated kinetic solubility method. The concentration of the compound in a saturated pH-buffered aqueous solution was determined via UV absorbance (250–498 nm) and compared with the spectra of a precipitation-free reference solution. The plasma stability of the compound was determined at a single concentration using species-specific plasma. The percentage of parent compound remaining after 3 h was determined via LC-MS/MS. The percentage of compound 1o bound to plasma proteins was determined through rapid equilibrium dialysis and quantified via LC-MS/MS. Metabolic stability of the compound was determined at a single concentration using species-specific liver microsomes that contained cytochrome P450s, flavin-monooxygenases, carboxyl-esterases, epoxide hydrolases, and other drug-metabolizing enzymes. The quantification was carried out via LC-MS/MS. Membrane permeability of compound 1o was measured using an in vitro model for the passive transport from the gastrointestinal tract into the blood system. A double-sink parallel artificial membrane permeability assay PAMPA, in a 96-well format was employed."}, "[4]": {"system": "P. falciparum NF54", "experiment": "IC50 speed assay", "assay_type": "cell-based, Plasmodium falciparum", "conditions": "for IC50: Plasmodium falciparum, mean±s.d., three biological replicates", "procedure": "To assess the rapidity of growth inhibition induced by the steroid compounds, the so-called IC50 speed assay[16] was conducted for compound 1o on P. falciparum NF54 (Fig. 2a,b)."}, "[5]": {"system": "P. berghei GFP ANKA malaria strain", "experiment": "P. berghei mouse model (Peter's test)", "assay_type": "in vivo, Plasmodium berghei in NMRI mice", "procedure": "The animal experiments described here were performed at the Swiss Tropical and Public Health Institute (Swiss TPH, Basel, Switzerland), they were approved by the Swiss Cantonal Authorities (‘Kantonales Veterinäramt Basel Stadt') adhering to local and national regulations of laboratory animal welfare in Switzerland. The best compounds were tested in the murine P. berghei model essentially as described. The infection was initiated at day 0 with the P. berghei GFP ANKA malaria strain (donation from AP Waters and CJ Janse, Leiden University). From donor mice (female NMRI mice, 18–20 grams (about 3 weeks) from Charles River Germany) with ∼30% parasitaemia, heparinized blood was taken and diluted in physiological saline to 10^8 parasitized erythrocytes/ml. An aliquot (0.2 ml) of this suspension was injected intravenously into experimental and control groups of mice (female NMRI mice, 18–20 grams (about 3 weeks) from Charles River Germany). Usually, in untreated control mice parasitaemia rose regularly to ∼30% by day 3 post-infection. Control mice died between days 6 and 7 post infection. In the experiments described here, however, control animals (n=5) were killed on day 4 post infection for ethical reasons.\nThe steroid compounds were prepared at an appropriate concentration as a solution/suspension in Tween 80/alcohol (7:3, Tween 80 and absolute ethanol, respectively), followed by a 10x dilution in water. […] The route of administration was i.p., p.o., s.c. in a volume of 10 ml kg^−1.\nThe degree of infection (parasitaemia expressed in % of infected erythrocytes) was determined by FACS analysis on day 4 (96 h post infection). The difference of the mean infection rate of the control group (=100%) to the test group was calculated and expressed as a percent reduction. For example, activity determination with a mean of 2% parasitaemia in treated mice and a mean of 40% parasitaemia in the control animals is calculated as follows: (40−2%)/40% × 100=95% activity. The survival time in days was recorded up to 30 days after infection. A compound was considered curative if the animal survived to day 30 after infection with no detectable parasites (confirmed by light microscopy)."}, "[6]": {"conditions": "4x 100 mg/kg i.p., recorded up to 30 days"}, "[7]": {"conditions": "4x 100 mg/kg p.o., recorded up to 30 days"}},
  "note": "“And” between values parts separate entries of the source, which are not always exact repeats. Identical values can stand only once. Like-named read-outs stand apart in the source and are kept apart here.",
  "data": [
    {"compound": "COc1ccc2c(c1)CCC1C2CC[C@@]2(C)C1CC[C@H]2NCc1cc2ccccc2cc1O", "note": "(some centres unmarked) [1o]", "values": [
      {"measurement": "acute toxicity symptoms", "setting": "[1]", "value": "No acute toxicity symptoms were observed"},
      {"measurement": "CC50 at 24 h", "setting": "[2]", "value": "> 50000", "unit": "nM"},
      {"measurement": "fraction unbound at 1 µM", "setting": "[3]; Human", "value": 0.0087},
      {"measurement": "fraction unbound at 10 µM", "setting": "[3]; Human", "value": 0.0094},
      {"measurement": "fraction unbound at 1 µM", "setting": "[3]; Mouse", "value": 0.0094},
      {"measurement": "fraction unbound at 10 µM", "setting": "[3]; Mouse", "value": 0.0107},
      {"measurement": "speed of action (IC50 shift across 24, 48, 72 h)", "setting": "[4]", "value": "no significant IC50 shifts"},
      {"measurement": "IC50", "setting": "[4]; NF54, read-out: IC50 24 h, 24 h compound incubation", "value": "2.9 ± 0.2", "unit": "nM"},
      {"measurement": "IC50", "setting": "[4]; NF54, 48 h compound incubation, read-out: IC50 48 h", "value": "3.4 ± 0.2", "unit": "nM"},
      {"measurement": "IC50", "setting": "[4]; NF54, 72 h compound incubation, read-out: IC50 72 h", "value": "2.7 ± 0.4", "unit": "nM"},
      {"measurement": "% activity (reduction of parasitaemia)", "setting": "[5]; 1x 100 mg/kg p.o.", "value": 98, "unit": "%"},
      {"measurement": "% of control", "setting": "[5]; 1x 100 mg/kg p.o.", "value": 1.5, "unit": "%"},
      {"measurement": "Mouse survival in days, Average", "setting": "[5]; 1x 100 mg/kg p.o.", "value": 13, "unit": "days"},
      {"measurement": "Mouse survival in days, individual mice M1-M3", "setting": "[5]; 1x 100 mg/kg p.o.", "value": "14 days (2×) and 11 days"},
      {"measurement": "Parasitized RBC over 100, Average", "setting": "[5]; 1x 100 mg/kg p.o.", "value": 0.47},
      {"measurement": "Parasitized RBC over 100, individual mice M1-M3", "setting": "[5]; 1x 100 mg/kg p.o.", "value": "0.30 and 0.60 and 0.50"},
      {"measurement": "Parasitized RBC after 30 d (microscope), individual mice", "setting": "[5]; 4x 100 mg/kg i.p.", "value": 0.0},
      {"measurement": "% activity (reduction of parasitaemia)", "setting": "[5]; 4x 100 mg/kg i.p., day 4", "value": 99.8, "unit": "%"},
      {"measurement": "% of control", "setting": "[5]; 4x 100 mg/kg i.p., day 4", "value": 0.17, "unit": "%"},
      {"measurement": "Parasitized RBC over 100, Average", "setting": "[5]; 4x 100 mg/kg i.p., day 4", "value": 0.10},
      {"measurement": "Parasitized RBC over 100, individual mice M1-M3", "setting": "[5]; 4x 100 mg/kg i.p., day 4", "value": 0.10},
      {"measurement": "Mouse survival in days, Average", "setting": "[5]; [6]", "value": "> 30", "unit": "days"},
      {"measurement": "Mouse survival in days, individual mice M1-M3", "setting": "[5]; [6]", "value": 30, "unit": "days"},
      {"measurement": "% activity (reduction of parasitaemia)", "setting": "[5]; 4x 100 mg/kg p.o.", "value": 99.8, "unit": "%"},
      {"measurement": "% of control", "setting": "[5]; 4x 100 mg/kg p.o.", "value": 0.22, "unit": "%"},
      {"measurement": "Parasitized RBC after 30 d (microscope), individual mice", "setting": "[5]; 4x 100 mg/kg p.o.", "value": 0.0},
      {"measurement": "Parasitized RBC over 100, Average", "setting": "[5]; 4x 100 mg/kg p.o.", "value": 0.13},
      {"measurement": "Parasitized RBC over 100, individual mice M1-M3", "setting": "[5]; 4x 100 mg/kg p.o.", "value": "0.00 and 0.30 and 0.10"},
      {"measurement": "Mouse survival in days, Average", "setting": "[5]; [7]", "value": 27, "unit": "days"},
      {"measurement": "Mouse survival in days, individual mice M1-M3", "setting": "[5]; [7]", "value": "30 days (2×) and 20 days"},
      {"measurement": "cure of mice", "setting": "[5]; 4 × 100 mg kg−1 i.p.", "value": "all mice treated were cured"},
      {"measurement": "cure of mice", "setting": "[5]; 4 × 100 mg kg−1 oral", "value": "two thirds of the animals were cured"}
    ]}
  ]
}
